We go through one molecule from ChEMBL document CHEMBL4130451, “Design and Synthesis of N-Aryl Phenoxyethoxy Pyridinones as Highly Selective and CNS Penetrant mGlu3 NAMs” (ACS Med Chem Lett, 2017).

Broadly, the IC50 is the concentration at which inhibition is half-maximal. The term inhibition denotes the drop in the measured response relative to a control, in per cent.

Calls of active or inactive are those of the source. The rule behind the calls is not given here. Some results are limits rather than exact numbers.

In one data set the target is Cytochrome P450 2D6 (Homo sapiens, UniProt P10635). The experiment in a line: Inhibition of CYP2D6 in human liver microsomes using dextromethorphan as substrate after 15 mins in presence of NADPH by LC/MS/MS analysis. It is filed as ADME. A general note: Microsomes from liver hold many membrane-bound enzymes, among them those of drug oxidation.
The target of a further data set is Cytochrome P450 2C9 (Homo sapiens, UniProt P11712). The experiment in a line: Inhibition of CYP2C9 in human liver microsomes using diclofenac as substrate after 15 mins in presence of NADPH by LC/MS/MS analysis. It is filed as ADME.
For data set [1], the target named is Metabotropic glutamate receptor 1 (Homo sapiens) (UniProt Q13255). The experiment in a line: Negative allosteric modulation of human mGlu1 receptor expressed in TREX293 cells assessed as inhibition of glutamate induced-calcium mobilization preincubated for 2.3 mins followed by glutamate addition measured for 2.6 mins by Fluo-4 AM dye based fluorescence assay. It is filed as functional, cell-based. For orientation: A change in cytosolic calcium serves as a functional read-out for many receptors and channels.

A short description of data set [2]: Ratio of drug uptake in Harlan CD-1 mouse brain at 3 mg/kg, ip to IC50 for negative allosteric modulation of rat mGlu3 receptor expressed in TREX cells coexpressing Galpha15. It is filed as ADME, organism-based. The conditions noted are these: in vivo.
Data set [3] deals with Adenosine receptor A1 (Homo sapiens) (UniProt P30542). The experiment in a line: Inhibition of human adenosine A1 receptor at 10 uM relative to control.
Data set [4] has as its target Alpha-1D adrenergic receptor (Homo sapiens) (UniProt P25100). The experiment in a line: Inhibition of human adrenergic alpha 1D receptor at 10 uM relative to control.
Data set [5] concerns the target Beta-1 adrenergic receptor (Homo sapiens) (UniProt P08588). The experiment in a line: Inhibition of human adrenergic beta1 receptor at 10 uM relative to control.
Data set [6] addresses Histamine H3 receptor (Homo sapiens) (UniProt Q9Y5N1). The experiment in a line: Inhibition of human histamine H3 receptor at 10 uM relative to control.
The target of data set [7] is Interleukin-1 receptor type 1 (Mus musculus) (UniProt P13504). The experiment in a line: Inhibition of mouse IL1 receptor at 10 uM relative to control.
Data set [8] concerns the target Muscarinic acetylcholine receptor M1 (Homo sapiens) (UniProt P11229). The experiment in a line: Inhibition of human muscarinic M1 receptor at 10 uM relative to control.
Data set [9] has as its target Mu-type opioid receptor (Homo sapiens) (UniProt P35372). The experiment in a line: Inhibition of human mu opioid receptor at 10 uM relative to control.
For data set [10], the target named is Prostaglandin E2 receptor EP4 subtype (Homo sapiens) (UniProt P35408). The experiment in a line: Inhibition of human EP4 receptor at 10 uM relative to control.
For data set [11], the target named is Sodium-dependent noradrenaline transporter (Homo sapiens) (UniProt P23975). The experiment in a line: Inhibition of human NET at 10 uM relative to control.

Beta-1 adrenergic receptor (Homo sapiens), sequence (P08588 whole entry, looked up): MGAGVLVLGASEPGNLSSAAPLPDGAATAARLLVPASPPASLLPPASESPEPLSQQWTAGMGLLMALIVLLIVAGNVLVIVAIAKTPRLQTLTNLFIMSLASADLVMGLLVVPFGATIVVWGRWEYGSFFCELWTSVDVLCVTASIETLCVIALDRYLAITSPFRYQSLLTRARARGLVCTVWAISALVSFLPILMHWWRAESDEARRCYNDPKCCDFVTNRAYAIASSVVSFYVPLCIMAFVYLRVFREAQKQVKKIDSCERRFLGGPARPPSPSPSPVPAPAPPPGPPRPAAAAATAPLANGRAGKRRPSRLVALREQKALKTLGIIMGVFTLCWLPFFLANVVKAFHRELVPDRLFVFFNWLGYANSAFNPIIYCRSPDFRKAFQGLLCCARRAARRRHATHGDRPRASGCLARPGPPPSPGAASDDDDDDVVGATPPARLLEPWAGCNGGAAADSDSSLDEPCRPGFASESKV
Histamine H3 receptor (Homo sapiens), sequence (Q9Y5N1 whole entry): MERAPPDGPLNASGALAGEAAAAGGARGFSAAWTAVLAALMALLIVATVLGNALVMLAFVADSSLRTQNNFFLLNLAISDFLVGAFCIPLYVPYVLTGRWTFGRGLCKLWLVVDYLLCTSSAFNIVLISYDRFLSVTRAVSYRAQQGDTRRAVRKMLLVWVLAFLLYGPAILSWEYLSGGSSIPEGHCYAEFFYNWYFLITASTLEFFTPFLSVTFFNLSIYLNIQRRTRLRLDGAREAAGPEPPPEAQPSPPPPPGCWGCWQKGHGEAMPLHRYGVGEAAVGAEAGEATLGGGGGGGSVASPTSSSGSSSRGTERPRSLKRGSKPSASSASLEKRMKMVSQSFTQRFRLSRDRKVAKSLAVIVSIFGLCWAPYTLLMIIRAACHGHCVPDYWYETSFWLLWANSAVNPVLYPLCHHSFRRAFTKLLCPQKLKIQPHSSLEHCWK
Alpha-1D adrenergic receptor (Homo sapiens), sequence (P25100 whole entry): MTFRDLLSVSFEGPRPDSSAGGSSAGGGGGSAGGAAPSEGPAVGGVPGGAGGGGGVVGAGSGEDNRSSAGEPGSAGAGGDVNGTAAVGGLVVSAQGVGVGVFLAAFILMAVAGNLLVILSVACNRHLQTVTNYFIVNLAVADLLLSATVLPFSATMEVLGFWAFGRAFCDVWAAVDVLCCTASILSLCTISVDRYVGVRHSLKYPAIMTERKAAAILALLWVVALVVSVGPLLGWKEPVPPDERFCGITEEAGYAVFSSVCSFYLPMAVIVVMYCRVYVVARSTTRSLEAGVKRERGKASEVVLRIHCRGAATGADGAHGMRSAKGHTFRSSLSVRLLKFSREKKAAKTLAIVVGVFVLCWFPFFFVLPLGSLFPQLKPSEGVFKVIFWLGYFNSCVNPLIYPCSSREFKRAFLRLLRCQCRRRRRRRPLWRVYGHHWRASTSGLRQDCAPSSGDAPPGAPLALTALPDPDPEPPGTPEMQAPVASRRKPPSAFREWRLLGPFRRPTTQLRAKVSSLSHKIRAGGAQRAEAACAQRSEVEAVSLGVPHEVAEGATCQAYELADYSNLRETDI
Cytochrome P450 2D6, sequence (P10635 whole entry): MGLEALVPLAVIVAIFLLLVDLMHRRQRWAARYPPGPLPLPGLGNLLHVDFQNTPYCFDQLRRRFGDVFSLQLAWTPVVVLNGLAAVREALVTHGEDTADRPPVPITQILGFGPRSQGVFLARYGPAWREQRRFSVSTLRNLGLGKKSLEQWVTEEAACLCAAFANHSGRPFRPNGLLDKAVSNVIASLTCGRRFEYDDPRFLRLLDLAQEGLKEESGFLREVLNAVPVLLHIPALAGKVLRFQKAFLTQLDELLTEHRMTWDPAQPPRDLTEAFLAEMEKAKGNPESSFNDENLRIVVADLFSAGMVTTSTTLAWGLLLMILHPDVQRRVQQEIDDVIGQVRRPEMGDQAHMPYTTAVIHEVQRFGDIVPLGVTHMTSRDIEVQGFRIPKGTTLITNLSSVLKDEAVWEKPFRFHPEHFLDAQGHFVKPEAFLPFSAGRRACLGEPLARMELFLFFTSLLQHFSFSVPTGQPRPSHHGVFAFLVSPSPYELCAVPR
Cytochrome P450 2C9, sequence (P11712 whole entry): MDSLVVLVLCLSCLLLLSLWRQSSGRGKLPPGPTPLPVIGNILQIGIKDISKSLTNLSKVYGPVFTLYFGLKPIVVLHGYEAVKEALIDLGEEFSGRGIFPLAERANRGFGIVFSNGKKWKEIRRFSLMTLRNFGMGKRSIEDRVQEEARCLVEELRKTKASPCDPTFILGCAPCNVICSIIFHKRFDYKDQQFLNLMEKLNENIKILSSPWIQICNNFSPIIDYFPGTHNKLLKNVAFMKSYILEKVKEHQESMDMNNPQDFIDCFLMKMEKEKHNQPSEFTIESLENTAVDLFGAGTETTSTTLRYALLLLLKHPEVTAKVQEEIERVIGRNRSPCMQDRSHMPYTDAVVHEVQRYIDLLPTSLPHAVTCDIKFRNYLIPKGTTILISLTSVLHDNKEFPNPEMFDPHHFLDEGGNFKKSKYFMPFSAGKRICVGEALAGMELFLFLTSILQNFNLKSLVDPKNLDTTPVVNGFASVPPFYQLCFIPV
Prostaglandin E2 receptor EP4 subtype (Homo sapiens), sequence (P35408 whole entry): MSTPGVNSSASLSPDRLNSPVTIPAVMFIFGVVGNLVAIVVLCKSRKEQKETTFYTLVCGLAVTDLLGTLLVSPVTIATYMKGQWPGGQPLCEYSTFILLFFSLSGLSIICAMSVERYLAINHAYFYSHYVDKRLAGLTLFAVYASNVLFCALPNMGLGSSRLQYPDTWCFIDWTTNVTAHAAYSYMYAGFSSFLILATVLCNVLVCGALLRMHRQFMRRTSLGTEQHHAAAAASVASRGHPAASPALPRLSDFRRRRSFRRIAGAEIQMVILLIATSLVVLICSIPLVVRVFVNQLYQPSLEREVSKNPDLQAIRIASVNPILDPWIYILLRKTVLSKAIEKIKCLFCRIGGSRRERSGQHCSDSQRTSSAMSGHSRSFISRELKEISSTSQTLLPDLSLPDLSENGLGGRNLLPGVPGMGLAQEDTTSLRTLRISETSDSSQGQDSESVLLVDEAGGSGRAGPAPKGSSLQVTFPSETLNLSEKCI
Metabotropic glutamate receptor 1 (Homo sapiens), sequence (Q13255 19-1194 limits assumed): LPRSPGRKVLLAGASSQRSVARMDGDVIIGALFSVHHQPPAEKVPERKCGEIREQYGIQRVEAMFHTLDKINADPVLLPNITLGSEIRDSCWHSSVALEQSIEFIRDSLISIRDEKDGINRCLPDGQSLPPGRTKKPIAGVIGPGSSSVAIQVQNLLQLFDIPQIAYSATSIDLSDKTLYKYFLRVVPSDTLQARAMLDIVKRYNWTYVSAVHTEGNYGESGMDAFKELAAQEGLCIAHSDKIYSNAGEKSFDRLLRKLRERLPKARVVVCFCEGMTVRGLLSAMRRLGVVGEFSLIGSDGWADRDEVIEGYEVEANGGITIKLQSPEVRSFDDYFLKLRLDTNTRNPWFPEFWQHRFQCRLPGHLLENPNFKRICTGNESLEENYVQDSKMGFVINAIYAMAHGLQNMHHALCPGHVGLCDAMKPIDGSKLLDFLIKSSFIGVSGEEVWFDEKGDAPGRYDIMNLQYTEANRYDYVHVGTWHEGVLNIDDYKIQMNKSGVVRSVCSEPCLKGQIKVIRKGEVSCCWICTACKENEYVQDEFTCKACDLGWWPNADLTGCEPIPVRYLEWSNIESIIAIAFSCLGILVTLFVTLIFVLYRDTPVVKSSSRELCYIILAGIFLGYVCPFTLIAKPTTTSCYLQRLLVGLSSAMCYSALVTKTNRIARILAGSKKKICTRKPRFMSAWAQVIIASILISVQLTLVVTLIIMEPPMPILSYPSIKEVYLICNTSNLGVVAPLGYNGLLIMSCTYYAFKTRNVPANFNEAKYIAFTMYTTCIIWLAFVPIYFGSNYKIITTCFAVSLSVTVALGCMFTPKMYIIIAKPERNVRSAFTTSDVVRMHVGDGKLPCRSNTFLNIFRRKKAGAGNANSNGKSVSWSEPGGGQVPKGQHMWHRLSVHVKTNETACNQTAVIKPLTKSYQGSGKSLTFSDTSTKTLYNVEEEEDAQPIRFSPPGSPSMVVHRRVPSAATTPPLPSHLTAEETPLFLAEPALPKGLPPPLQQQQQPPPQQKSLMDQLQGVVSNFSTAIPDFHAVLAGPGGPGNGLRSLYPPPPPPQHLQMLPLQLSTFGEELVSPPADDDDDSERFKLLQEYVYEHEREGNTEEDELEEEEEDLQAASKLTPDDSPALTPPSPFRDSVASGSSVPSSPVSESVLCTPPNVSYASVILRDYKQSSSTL
Interleukin-1 receptor type 1 (Mus musculus), sequence (P13504 whole entry): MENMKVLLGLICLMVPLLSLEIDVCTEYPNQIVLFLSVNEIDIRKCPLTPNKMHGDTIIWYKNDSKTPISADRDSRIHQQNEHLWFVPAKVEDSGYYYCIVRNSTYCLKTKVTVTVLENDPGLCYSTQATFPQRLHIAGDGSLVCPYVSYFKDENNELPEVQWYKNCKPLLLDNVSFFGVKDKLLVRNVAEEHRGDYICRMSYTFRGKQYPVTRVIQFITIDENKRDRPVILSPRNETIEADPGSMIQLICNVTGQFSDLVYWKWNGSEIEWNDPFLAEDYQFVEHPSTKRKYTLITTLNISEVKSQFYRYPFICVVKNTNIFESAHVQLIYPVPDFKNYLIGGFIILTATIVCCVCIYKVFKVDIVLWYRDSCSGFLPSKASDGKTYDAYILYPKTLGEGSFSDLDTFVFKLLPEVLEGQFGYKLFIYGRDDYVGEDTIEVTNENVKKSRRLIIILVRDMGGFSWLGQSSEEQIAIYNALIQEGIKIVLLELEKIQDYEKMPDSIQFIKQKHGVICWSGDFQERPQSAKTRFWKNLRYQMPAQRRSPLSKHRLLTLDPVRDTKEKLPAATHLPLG

`C[C@@H](COc1ccn(-c2ccc(F)cc2)c(=O)c1)Oc1ccccc1`: the IC50 on Cytochrome P450 2D6 and on Cytochrome P450 2C9 was over 30 µM in each case. Moreover, the inhibition result in [1] is “inactive”. In addition, the Ratio in [2] stood at 5. For the same molecule, the inhibition in data set [3], in data set [4], in data set [5], in [6], in data set [7] and in [8] was over 50% in each case. Besides, the inhibition in [9], in data set [10] and in data set [11] was over 50% each time.
